In one experiment the test system is E. coli. Kind of experiment: dye formation from RIND VII in presence of calimycin, E. coli. In kind it is cell-based, Escherichia coli (ATCC 25922). Details: key: 0: no dye formation; +/-: faint dye formation; 1+: light dye formation; 2+: moderate dye formation; 3+: strong dye formation; 4+: very strong dye formation. The conditions noted are these: calimycin 10^-3 molar, calcium chloride. Here is the method:
(§1) gram-negative bacteria Enterobacter cloacae (ATCC 23355), Escherichia coli (ATCC 25922), Proteus vulgaris (ATCC 13315), Klebsiella pneumoniae (ATCC 13883) and Pseudomonas aeruginosa (ATCC 27853), and gram-positive bacteria Staphylococcus aureus (ATCC 25923) and Streptococcus pyogenes (ATCC 19615), and brain heart infusion (BHI) broth from Difco Laboratories (Detroit, Mich.),
(§2) Bacterial suspensions were prepared by growing the cells in BHI to stationary phase overnight at 37° C. P. aeruginosa was grown with agitation. […]
(§3) TERGITOL 7 anionic surfactant was used to differentiate viable bacteria according to the prior art method. […] The amount of dye formed was then determined visually and graded as follows: 0 indicates no dye formation, +/- indicates faint dye formation, 1+ indicates light dye formation, 2+ indicates moderate dye formation, 3+ indicates strong dye formation, and 4+ indicates very strong dye formation.
(§4) Calimycin, a polyether antibiotic, was similarly used with RIND VII in the differentiation of bacteria. Assays were performed as described above, except that 25 μl of 1 molar calcium chloride solution was added to each test solution and the P. aeruginosa response was measured in the presence of 10% yeast extract as the carbon source instead of glucose. […]

In another experiment the test system is K. pneumoniae. In words: dye formation from RIND VII in presence of calimycin, K. pneumoniae. To be noted: calimycin 10^-3 molar, calcium chloride. Details: key: 0: no dye formation; +/-: faint dye formation; 1+: light dye formation; 2+: moderate dye formation; 3+: strong dye formation; 4+: very strong dye formation. In kind it is cell-based, Klebsiella pneumoniae (ATCC 13883). Here is the method:
as §1, §2, §3, §4

Another experiment concerns S. faecalis. Kind of experiment: dye formation from RIND VII in presence of calimycin, S. faecalis. The arrangement: key: 0: no dye formation; +/-: faint dye formation; 1+: light dye formation; 2+: moderate dye formation; 3+: strong dye formation; 4+: very strong dye formation. The conditions noted are these: calimycin 10^-3 molar, calcium chloride. Format: cell-based, Streptococcus faecalis (clinical urine isolate). Here is the method:
Streptococcus faecalis was isolated from a clinical urine specimen obtained from a local hospital,
(§5) Bacterial suspensions were prepared by growing the cells in BHI to stationary phase overnight at 37° C. P. aeruginosa was grown with agitation. About 40 ml of overnight cultures were centrifuged, decanted and washed once with 0.05 molar potassium phosphate buffer or 0.05 molar N-2-hydroxyethylpiperazine-N'-2-ethanesulfonic acid (HEPES) buffer, pH 7.8, and resuspended in buffer.
A dispersion containing a RIND compound was prepared by dissolving RIND VII from Table II above in N,N-dimethylformamide (DMF) at 16 mg compound per ml of solvent. […]
as §3, §4

The next experiment concerns S. aureus (gram +). In words: change in relative fluorescence with water-compatible RIND XXXV (Example 4), S. aureus. In kind it is cell-based, Staphylococcus aureus (ATCC 25923). To be noted: 37° C., without antibiotic 2667. On the procedure:
as §1, §5
A dispersion containing a RIND compound was prepared by dissolving RIND VII from Table II above in N,N-dimethylformamide (DMF) at 16 mg compound per ml of solvent. An aliquot (250 μl) of the resulting solution was added to 500 μl of TRITON X-100 surfactant. This mixture was then added dropwise with stirring to 25 ml of 0.05 molar HEPES buffer. A solution containing a water-compatible RIND compound XXXV was prepared by dissolving the compound (16 mg/ml) in N,N-dimethylformamide which had been acidified with a 0.1% sulfuric acid solution.
A solution was prepared from the following components: 100 μl RIND XXXV solution (16 mg/ml acidified N,N-dimethylformamide), 200 μl glucose solution (10% in water), 200 μl trimethyl-1,4-benzoquinone ETA solution (1.5 mg/ml methanol) and 10 ml HEPES buffer.
Test solutions were prepared from the following reagents: 50 μl HEPES buffer, 50 μl polyether antibiotic A23187 (free acid, 0.01 molar in methanol), 10 μl calcium chloride solution (1 molar) (serial dilutions of buffer and antibiotic were performed to obtain various antibiotic concentrations), 50 μl of the appropriate cell suspensions (E. coli, about 10^8 cells/ml and S. aureus, about 10^8 cells/ml) and 200 μl of the RIND solution. Control solutions were prepared as described in Examples 2 and 3.
Relative fluorescence was measured using a standard spectrophotometer modified to read at excitation of 540 nm and emission of 620 nm. The change (Δ) in relative fluorescence was determined after 30 minutes at 37° C. for several concentration levels of antibiotic.

For another experiment, the system named is E. coli (gram -). Kind of experiment: inhibition of the reduction of RIND XXXV in dry analytical element (Example 6), E. coli. The conditions noted are these: calcium chloride, 30 minutes, 37° C. In kind it is cell-based, Escherichia coli (ATCC 25922). On the procedure:
as §1, §2
Optical density readings (OD) were made at 635 nm at 0 minutes and after incubation at 37° C. for 30 minutes for all solutions, and the change (ΔOD) was determined. […] The corrected percent inhibition was calculated by dividing the difference between ΔOD obtained from a Control test without antibiotic and the ΔOD of the test, by the ΔOD of the Control without antibiotic. All readings were corrected by subtracting readings of the appropriate background control. […]
The relative fluorescence (excitation 540 nm, emission 620 nm) was measured using a standard spectrophotometer, and the change in relative fluorescence was determined after 30 minutes at 37° C. […]

In the case of `CNc1ccc2oc(C[C@H]3O[C@@]4(CC[C@H]3C)O[C@H]([C@H](C)C(=O)c3ccc[nH]3)[C@H](C)C[C@H]4C)nc2c1C(=O)O` [calimycin, Calimycin], the dye formation is recorded as 3+ in the experiment on E. coli (15 Minutes); 4+ with E. coli (30 Minutes); 4+ in the experiment with K. pneumoniae (15 Minutes); 4+ in the experiment with K. pneumoniae (30 Minutes); “+/-” in the experiment with S. faecalis (15 Minutes); “+/-” in the experiment with S. faecalis (30 Minutes). Moreover, the “Δ Relative Fluorescence after 30 Min.” value was 409 with S. aureus (gram +) (antibiotic 1 × 10^-4 molar), 362 with S. aureus (gram +) (antibiotic 2 × 10^-4 molar), 290 in the experiment with S. aureus (gram +) (antibiotic 4 × 10^-4 molar) and 345 with S. aureus (gram +) (antibiotic 8 × 10^-4 molar). Further, the “Corrected Percent Inhibition” value in the experiment on E. coli (gram -) turned out to be 11.5%.
